# Counter-ions that a name gives are not always drawn.
# How the values were obtained:
# Format in all cases: functional
# [1] = Growth inhibition of human MRC9 cells assessed as reduction in cell viability measured after 48 hrs by SRB method
# ACHN = assay: Growth inhibition of human ACHN cells assessed as reduction in cell viability measured after 48 hrs by SRB method
# MDA-MB-231 = assay: Growth inhibition of human MDA-MB-231 cells assessed as reduction in cell viability measured after 48 hrs by SRB method
# HCT-15 = assay: Growth inhibition of human HCT-15 cells assessed as reduction in cell viability measured after 48 hrs by SRB method
# PC-3 = assay: Growth inhibition of human PC-3 cells assessed as reduction in cell viability measured after 48 hrs by SRB method
# NUGC-3 = assay: Growth inhibition of human NUGC-3 cells assessed as reduction in cell viability measured after 48 hrs by SRB method
# NCI-H23 = assay: Growth inhibition of human NCI-H23 cells assessed as reduction in cell viability measured after 48 hrs by SRB method
# [2] = Growth inhibition of human RPMI-1788 cells assessed as reduction in cell viability measured after 48 hrs by SRB method
# HL-60 = assay: Growth inhibition of human HL-60 cells assessed as reduction in cell viability measured after 48 hrs by SRB method
# Raji = assay: Growth inhibition of human Raji cells assessed as reduction in cell viability measured after 48 hrs by SRB method
# WSUDLCL2 = assay: Growth inhibition of human WSUDLCL2 cells assessed as reduction in cell viability measured after 48 hrs by SRB method
# NALM-6 = assay: Growth inhibition of human NALM-6 cells assessed as reduction in cell viability measured after 48 hrs by SRB method
# K562 = assay: Growth inhibition of human K562 cells assessed as reduction in cell viability measured after 48 hrs by SRB method
# RPMI 8402 = assay: Growth inhibition of human RPMI 8402 cells assessed as reduction in cell viability measured after 48 hrs by SRB method
# U-266 = assay: Growth inhibition of human U-266 cells assessed as reduction in cell viability measured after 48 hrs by SRB method
SMILES,GI50 (ACHN) [µM],GI50 (MDA-MB-231) [µM],GI50 (HCT-15) [µM],GI50 (PC-3) [µM],GI50 (NCI-H23) [µM],GI50 (HL-60) [µM],GI50 (Raji) [µM],GI50 (K562) [µM],GI50 [1] [µM],GI50 (NUGC-3) [µM],GI50 [2] [µM],GI50 (WSUDLCL2) [µM],GI50 (NALM-6) [µM],GI50 (RPMI 8402) [µM],GI50 (U-266) [µM]
CC[C@@H](O)CCCCCCCCCNC(C)=O,5.7,4.7,4.6,5.1,5.3,> 30,> 30,> 30,5.3,3.9,4.7,14,> 30,> 30,> 30
CC(=O)NCCCCCCCCC[C@@H](O)[C@H](C)O,6.4,7.5,5.8,7.3,7.2,> 30,> 30,> 30,6.7,6.6,17,> 30,> 30,> 30,> 30
CC(=O)NCCCCCCCCCC(=O)CCO,16,18,15,19,18,> 30,> 30,> 30,20,17,28,> 30,> 30,> 30,> 30
CC(=O)CCCCCCCCCCNC(C)=O,> 30,> 30,> 30,> 30,> 30,> 30,> 30,> 30,> 30,> 30,> 30,> 30,> 30,> 30,> 30
CC(=O)NCCCCCCCCC[C@@H](O)CCO,5.8,4.6,5.4,5.5,4.6,> 30,> 30,28,4,3,2.9,5.6,> 30,25,> 30
CC(=O)NCCCCCCCCCC[C@@H](C)O,23,20,16,19,22,> 30,> 30,> 30,19,19,> 30,> 30,> 30,> 30,> 30
CCC(=O)CCCCCCCCCNC(C)=O,> 30,> 30,> 30,> 30,> 30,> 30,19,> 30,> 30,> 30,> 30,> 30,> 30,> 30,> 30

# These reach a lower GI50 (ACHN). Values come first.
GI50 (ACHN) [µM],GI50 (MDA-MB-231) [µM],GI50 (HCT-15) [µM],GI50 (PC-3) [µM],GI50 (NCI-H23) [µM],GI50 (HL-60) [µM],GI50 (Raji) [µM],GI50 (K562) [µM],SMILES,GI50 [1] [µM],GI50 (NUGC-3) [µM],GI50 [2] [µM],GI50 (WSUDLCL2) [µM],GI50 (NALM-6) [µM],GI50 (RPMI 8402) [µM],GI50 (U-266) [µM]
1.6,2,2.1,1.7,1.9,> 30,> 30,> 30,CC(=O)NCCCCCCCCC[C@@H](O)[C@@H](C)O,2,1.4,3.1,8.3,> 30,> 30,> 30
2.3,2.6,2.6,2,2.1,15,> 30,19,CC(=O)NCCCCCCCCCO,2.8,1.5,0.5,1.3,18,4.4,> 30
0.5,0.5,0.5,0.5,0.5,1.3,26,1.5,CC(=O)NCCCCCCCCCC[C@H](O)CO,0.6,0.4,0.1,0.2,1.5,0.6,> 30
1.1,1.1,1.1,0.8,1,7.9,0.4,11,CC(=O)CCCCCCCCNC(C)=O,1.1,0.7,0.4,0.8,9.2,2.5,> 30
0.081,0.077,0.087,0.085,0.072,0.002,0.008,0.007,COc1cccc2c1C(=O)c1c(O)c3c(c(O)c1C2=O)C[C@@](O)(C(=O)CO)C[C@@H]3O[C@H]1C[C@H](N)[C@H](O)[C@H](C)O1 [DOXORUBICIN HYDROCHLORIDE],0.08,0.093,0.007,0.004,0.003,0.01,0.004

# Reference: ChEMBL document CHEMBL6127071, “Albusamides A-G: Hydroxylated Fatty Amine Derivatives from the Deep-Sea-Derived Actinomycete Streptomyces albus 228DD-066 and Their Cytotoxic Activity” (2024)
